# pEC50, pKd: −log10 of the molar value. Read-outs that look alike come from different tables or passages of the source.
# What was measured:
# [1] = Cytotoxicity, CCK-8 cell viability assay in RD cells; type: cell-based, human; conditions: human
# Method: (§1) The cells were treated with various concentrations of compounds dissolved in DMSO for 48 h, and then cell viability was assayed using a Cell Counting kit‑8 (CCK-8; Beyotime, Shanghai, China). In brief, 10 μl of the CCK‑8 solution was added, and the cells were incubated for an additional 2 h. Medium without cells was used as a blank control. Absorbance at a wavelength of 450 nm was measured using a microplate reader. Cell viability was determined as a percentage of that of the control. All cell proliferation assays were performed in triplicate and repeated in three independent experiments.
# RD cells = assay: as above; type: cell-based, human; conditions: 48 h
# Method: as §1
# HEK293T cells = assay: Cytotoxicity, CCK-8 cell viability assay in HEK293T cells; type: cell-based; conditions: 48 h
# Method: as §1
# MDCK cells = assay: Cytotoxicity, CCK-8 cell viability assay in MDCK cells; type: cell-based; conditions: 48 h
# Method: as §1
# RSV = assay: Anti-RSV activity in HEK293T cells (Western blot, RT-qPCR); type: cell-based, respiratory syncytial virus; conditions: MOI 0.5, 48 h, safe drug concentrations
# influenza A(H1N1) virus = assay: Anti-influenza A(H1N1) activity in MDCK cells (Western blot, RT-qPCR); type: cell-based
# EV71 3D^pol [2] = target: T1, EV71 3D^pol (Human enterovirus 71, UniProt Q66478); assay: Isothermal titration calorimetry with EV71 3Dpol; type: binding
# T1 construct: EV71 3D^pol was cloned into the pET28a expression vector with a His tag at the N terminus; His tag (N); made in house; host or cells: E. coli BL21-derived cells
# T1 sequence (Q66478 1732-2193): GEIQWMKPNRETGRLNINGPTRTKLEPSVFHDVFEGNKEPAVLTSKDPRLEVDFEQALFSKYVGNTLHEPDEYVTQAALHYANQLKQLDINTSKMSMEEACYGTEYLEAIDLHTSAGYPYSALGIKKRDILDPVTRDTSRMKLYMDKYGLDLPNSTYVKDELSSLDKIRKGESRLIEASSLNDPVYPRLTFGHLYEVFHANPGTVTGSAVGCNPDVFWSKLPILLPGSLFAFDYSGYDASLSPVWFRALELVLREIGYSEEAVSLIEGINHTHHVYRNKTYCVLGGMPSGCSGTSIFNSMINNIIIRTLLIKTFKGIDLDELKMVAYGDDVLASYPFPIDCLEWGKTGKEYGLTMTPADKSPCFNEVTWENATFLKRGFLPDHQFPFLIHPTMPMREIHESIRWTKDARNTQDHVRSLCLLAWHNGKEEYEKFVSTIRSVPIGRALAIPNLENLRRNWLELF
# Method: (§2) EV71 3D^pol was cloned into the pET28a expression vector with a His tag at the N terminus and expressed in E. coli BL21-derived cells. The 3D^pol protein was purified by Ni-column affinity chromatography, and a gel filtration column was connected to an ÄKTA system (General Electric Company, CT, USA). The purity of the resulting 3D^pol protein was determined through SDS-PAGE analysis.
# ITC experiments were performed by using an ITC200 instrument (MicroCal, Inc., Northampton, MA, USA). The concentration of 3D^pol was 100 μM. FNC was diluted with buffer (pH 7.5, 25 mM HEPES, 100 mM NaCl) to yield a solution of 1.0 mM. The sample cell was filled with 3D^pol protein solution, and FNC was added by syringe at 25°C. The stirring rate was 750 r/min. All data were analyzed using the Origin 7.0 software.
# EV71 3D^pol [3] = target: T1, EV71 3D^pol; assay: Fluorescence-based activity assay for EV71 3Dpol; type: biochemical; conditions: poly(A)/UTP, SYTO 9, 30°C
# Method: as §2
# We followed the novel fluorescence-based method for the detection of polymerase activity of EV71 3D^pol ([52]). Reactions were performed in individual wells of black 96-well flat-bottom plates. The standard reaction contained 50 mM Tris-HCl (pH 7.5), 2.5 mM MnCl2, 100 μM UTP, 40 μg/ml poly(A), 0.1 mg/ml bovine serum albumin (BSA), and 0.25 μM SYTO 9. Different concentrations of FNC were added to the reaction mixtures. The assay was initiated by the addition of EV71 3D^pol, and the fluorescence was recorded at 30°C.
# EV71 CC063 = assay: Lethal EV71 challenge, neonatal mouse model; type: in vivo, ICR neonatal mice
# Method: (§3) One-day-old specific pathogen-free (SPF) ICR neonatal mice (Beijing Institute of Radiation Medicine) were used to establish the animal model of viral infection. All welfare and experimental procedures were carried out strictly in accordance with the Guide for the Care and Use of Laboratory Animals and the related ethical regulations of the Beijing Institute of Radiation Medicine. All efforts were made to minimize animal suffering. The neonatal mice were randomly divided into five groups, and each group contained three litters (n = 8 to ∼10 per litter). One group was inoculated intracerebrally with DMEM (10 μl/mouse) and after 1 h injected intraperitoneally with DMSO (control group). Two groups were inoculated intracerebrally with EV71 CC063 (10^5.5 CCID50 ml^−1) and after 1 h injected intraperitoneally with FNC or DMSO. Two groups were inoculated intracerebrally with CA16 CC045 (10^2.7 CCID50 ml^−1) and after 1 h injected intraperitoneally with FNC or DMSO. The survival rates and mean clinical symptoms were monitored daily for 15 days postinfection. The mean clinical symptoms were scored as follows: 0, healthy; 1, lethargy or weakness; 2, wasting; 3, limb tremors; 4, paralysis in hind limb; and 5, moribund or dead. The control mice were healthy throughout the experiments.
# (§4) After intracerebral inoculation with EV71 CC063 viruses, CA16 CC045 viruses, or culture medium, three experimental neonatal mice and three control neonatal mice were subjected to viral load detection. The EV71 infection and control groups were collected on day 9 postinfection, and the CA16 infection and control groups were collected on day 14 postinfection. All tissues, including brain, lung, spine skeletal muscle, and hind-limb muscle, were weighed individually, homogenized in sterile PBS, disrupted by freeze-thawing, and centrifuged. The samples were treated with TRIzol (Invitrogen) for RNA extraction and viral load determination by real-time PCR, as described previously ([42]). Viral loads were determined by real-time PCR and expressed as log10 copies/mg tissue.
# A total of 15 mice were sampled, as follows: three normal mice from the mock-infected group (the clinical score of grade 0), three mice from the EV71-infected and DMSO-treated group (the clinical score of grade 4), three mice from the CA16-infected and DMSO-treated group (the clinical score of grade 3), three mice from the EV71-infected and FNC-treated group (the clinical score of grade 3), and three mice from the CA16-infected and FNC-treated group (the clinical score of grade 1). After the mice were anesthetized, lung, brain, spine skeletal muscle, and hind-limb muscle tissues were harvested and immersion fixed with 10% formaldehyde solution for 5 days. […]
# CA16 CC045 = assay: Lethal CA16 challenge, neonatal mouse model; type: in vivo, ICR neonatal mice
# Method: as §3
# as §4, with “tissue. […]” for “tissue.”
# deoxycytidine kinase = test system: deoxycytidine kinase; parameters: method as in PMID 18003608; conditions: substrate for deoxycytidine kinase ref 32; cited from earlier work
# CA6 = assay: Anti-CA6 activity in infected RD cells (RT-qPCR); conditions: read-out: EC50 for CA6
# CA16 = assay: Anti-CA16 activity in infected RD cells (RT-qPCR); conditions: Enterovirus A, read-out: EC50 for CA16
# CVB3 = assay: Anti-CVB3 activity in infected RD cells (RT-qPCR); conditions: Enterovirus B, read-out: EC50 for CVB3
# EVD68 = assay: Anti-EVD68 activity in infected RD cells (RT-qPCR); conditions: Enterovirus D, read-out: EC50 for EVD68
# [4] = test system: EV71, CA16, CA6, CVB3, and EVD68; assay: Antiviral activity against a variety of enteroviruses in RD cells
# EV71 [5] = assay: Anti-EV71 activity in infected RD cells (Western blot, RT-qPCR, virus titer)
# EV71 [6] = test system: EV71; parameters: method as in PMID 18279075; conditions: RD cells, virus-induced CPE assay ref 27; read-out: 50% effective concentration (EC50) against EV71; cited from earlier work
# [7] = vs DMSO treatment group, P < 0.05
smiles,measurement,setting,value
"[N-]=[N+]=N[C@]1(CO)O[C@@H](n2ccc(N)nc2=O)[C@@H](F)[C@@H]1O [FNC, 2'-deoxy-2'-β-fluoro-4'-azidocytidine]",CC50 at 48 h,[1],3240 nM
same,concentration that did not significantly affect cell viability (safe dose),RD cells,1000 nM
same,safe dose,HEK293T cells,100 µM
same,safe dose,MDCK cells,10 µM
same,"effect on RSV replication (viral proteins, RNA)",RSV,no inhibitory effect
same,"effect on H1N1 replication (viral proteins, RNA)",influenza A(H1N1) virus,no inhibitory effect
same,pKd,EV71 3D^pol [2],5.22
same,RNA synthesis activity of EV71 3Dpol,EV71 3D^pol [3],inhibited the RNA synthesis activity of EV71 3D^pol in a dose-dependent manner
same,"tissue damage, H&E histology",EV71 CC063; EV71-infected spinal skeletal muscle and hind-limb muscle,significantly reduced the damage
same,mortality,"EV71 CC063; EV71 CC063 intracerebral, 1-day-old mice, 1 mg/kg i.p. days 1, 3, 6, 9, 12, 15 days",20%
same,EV71 viral load in spine skeletal muscle and hind-limb muscle (RT-qPCR),EV71 CC063; [7],completely decreased
same,EV71 viral loads in brain and lung (RT-qPCR),EV71 CC063; [7],moderately reduced
same,"tissue damage, H&E histology","CA16 CC045; CA16-infected brain, spinal skeletal muscle, hind-limb muscle",significantly reduced the damage
same,mortality,"CA16 CC045; CA16 CC045 intracerebral, 1-day-old mice, 1 mg/kg i.p. days 1, 3, 6, 9, 12, 15 days",0%
same,CA16 viral load in all detected tissues (RT-qPCR),"CA16 CC045; brain, lung, spine skeletal muscle, hind-limb muscle, vs DMSO, P < 0.05",completely decreased
same,phosphorylation efficiency relative to deoxycytidine,deoxycytidine kinase,up to 3 fold
same,pEC50,CA6,7.87
same,pEC50,CA16,7.28
same,pEC50,CVB3,7.47
same,pEC50,EVD68,8.81
same,virions in the supernatant and viral titers,"[4]; CA16, CA6, CVB3, EVD68, RD cells",suppressed by FNC in a dose-dependent manner
same,positive- and negative-strand EV RNA synthesis (RT-qPCR),"[4]; EV71, CA16, CA6, CVB3, EVD68, RD cells, 48 h",inhibited both positive- and negative-strand EV RNA synthesis
same,selectivity indices (CC50/EC50) against EVs,[4]; RD cells,good selectivity indices
same,pEC50,"[4]; RD, read-out: EC50 against a variety of enteroviruses",7.28 to 8.81
same,"suppression of EVs (VP1 protein expression, viral RNA levels, viral titers)",[4]; in vitro cell model,efficiently suppressed
same,"virus titers in supernatants (plaque assay, CPE-based TCID50)","EV71 [5]; EV71-infected RD cells, increasing doses",continuously decreasing virus titers
same,pEC50,"EV71 [5]; Enterovirus A, EV71, RD, 48 h, read-out: EC50 against EV71, RD cells, from reduced viral RNA level (RT-qPCR), 48 h",7.77
same,EV71 VP1 protein by Western blot,"EV71 [5]; RD cells, 100 nM, 48 h postinfection",could not be detected
same,"anti-EV71 activity, intracellular VP1 protein by Western blot","EV71 [5]; RD cells, MOI 0.1, 48 h treatment, 1 μM",obvious anti-EV71 activity
NC(=O)c1ncn([C@@H]2O[C@H](CO)[C@@H](O)[C@H]2O)n1 [ribavirin],interaction with EV71 3Dpol by ITC,"EV71 3D^pol [2]; ITC, 25°C, 3 mM ribavirin into 100 μM 3Dpol",failed to observe the interaction
same,pEC50,EV71 [6],3.58
